The first assay deals with T1, recombinant PTP1B (catalytic domain) (Homo sapiens, UniProt P18031).
T1 construct: The enzymatic activities of the PTP1B catalytic domain were determined at 30 °C by monitoring the hydrolysis of pNPP
T1 sequence (P18031 3-277 limits assumed): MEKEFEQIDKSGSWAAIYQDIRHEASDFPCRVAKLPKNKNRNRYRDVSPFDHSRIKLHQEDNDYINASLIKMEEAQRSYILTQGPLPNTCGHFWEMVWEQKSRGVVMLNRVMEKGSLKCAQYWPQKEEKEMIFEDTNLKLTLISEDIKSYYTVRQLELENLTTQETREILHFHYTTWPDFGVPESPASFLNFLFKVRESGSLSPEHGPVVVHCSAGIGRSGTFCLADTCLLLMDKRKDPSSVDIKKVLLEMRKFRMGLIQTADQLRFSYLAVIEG
Description: PTP1B inhibitory assay (pNPP hydrolysis). Type of assay: biochemical. As to conditions: in vitro; pNPP substrate, 30 °C, pH 6.5. On the procedure: The enzymatic activities of the PTP1B catalytic domain were determined at 30 °C by monitoring the hydrolysis of pNPP. Dephosphorylation of pNPP generates product pNP, which was monitored at an absorbance of 405 nm. In a typical 100 μL assay mixture containing 50 mmol/L 3-[N-morpholino] propanesulfonic acid (MOPs), pH 6.5, 2 mmol/L pNPP, and 30 nmol/L recombinant PTP1B, activities were continuously monitored and the initial rate of the hydrolysis was determined using the early linear region of the enzymatic reaction kinetic curve.
Usually IC50 stands for the concentration that inhibits the measured activity by half. Consider `CC(C)=CCCC(C)=CCCC(C)=CCCC1=CCC2OC1NC=C2C=O` (stereo not drawn) [Compound 1], for which the IC50 came to 5.2 µM.

`CC(C)=CCCC(C)=CCCC(C)=CCCC1=CCC(O)C2(C(N)=O)CC(=O)OC12` (stereo not drawn) [Compound 2]: the IC50 is above 50 µM. The same measure, in the same setting: in the case of `CC(C)=CCCC(C)=CCCC(C)=CCCC1=CCC(O)C2(C(=O)O)CC(=O)NC12` (stereo not drawn) [Compound 3] it was 33 µM. Turning to `CC(C)=CCC/C(C)=C/CC/C(C)=C/CCc1ccc(O)c(CC(=O)O)c1` [Compound 4], the 50% inhibitory concentration (IC50) was 14 µM. In the case of `CC(C)=CCC/C(C)=C/CC/C(C)=C/CC\C(C=O)=C/C=C/C(C=O)=C/N` [Compound 5], the IC50 was determined as 8.7 µM.

The test system of a further assay is HCT-116 cell line. In words: cytotoxicity against HCT-116 cancer cell line. Type of assay: cell-based. As to conditions: Homo sapiens.
`CC(C)=CCCC(C)=CCCC(C)=CCCC1=CCC2OC1NC=C2C=O` (stereo not drawn) [Compound 1] showed an IC50 of 11.6 µM.

Values taken from publication PMC4113817, “New Hippolide Derivatives with Protein Tyrosine Phosphatase 1B Inhibitory Activity from the Marine Sponge Hippospongia lachne” (Marine Drugs, 2014).
